In ChEMBL document CHEMBL4808216, “Gut-Restricted Selective Cyclooxygenase-2 (COX-2) Inhibitors for Chemoprevention of Colorectal Cancer” (J Med Chem, 2021):
pIC50: −log10 of the molar value. In brackets after ≈: the same amount, converted by molar mass. Activity calls are given as the source filed them. The rule behind the calls is not given here.

How the values were obtained:
[1] = target: T1, Prostaglandin G/H synthase 2 (Homo sapiens, UniProt P35354); assay: Inhibition of COX2 (unknown origin) expressed in HEK293 TRex cells assessed as reduction in PGE2 production using arachidonic acid as substrate preincubated for 60 mins followed by substrate addition for 1 hr in presence of 10% FBS by RapidFire High-Throughput Mass Spectrometry; type: cell-based, HEK293-T-REx
T1 sequence (P35354 whole entry): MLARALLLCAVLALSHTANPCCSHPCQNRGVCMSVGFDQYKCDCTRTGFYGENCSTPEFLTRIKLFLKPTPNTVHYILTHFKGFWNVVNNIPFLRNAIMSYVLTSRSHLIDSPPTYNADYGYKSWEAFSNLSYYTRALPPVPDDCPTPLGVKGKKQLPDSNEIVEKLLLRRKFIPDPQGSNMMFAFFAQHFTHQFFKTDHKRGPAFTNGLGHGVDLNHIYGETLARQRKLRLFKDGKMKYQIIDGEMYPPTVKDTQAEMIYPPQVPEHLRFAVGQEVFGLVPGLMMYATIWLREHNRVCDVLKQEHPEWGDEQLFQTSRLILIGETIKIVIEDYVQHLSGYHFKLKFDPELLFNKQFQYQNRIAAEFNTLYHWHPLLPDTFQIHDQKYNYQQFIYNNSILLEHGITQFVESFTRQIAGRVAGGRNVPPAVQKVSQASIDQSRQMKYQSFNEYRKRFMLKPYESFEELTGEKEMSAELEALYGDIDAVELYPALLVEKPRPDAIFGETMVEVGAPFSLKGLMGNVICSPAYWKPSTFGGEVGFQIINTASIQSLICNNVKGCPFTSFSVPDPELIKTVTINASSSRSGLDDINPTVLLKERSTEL

[2] = target: T1, Prostaglandin G/H synthase 2; assay: Inhibition of human recombinant COX-2 assessed as reduction in peroxidase activity using arachidonic acid as substrate preincubated for 60 mins followed by substrate addition for 2 secs by ADPH based fluorometric analysis
[3] = target: T2, Prostaglandin G/H synthase 1 (Homo sapiens, UniProt P23219); assay: Inhibition of COX1 (unknown origin) expressed in HEK293 TRex cells assessed as reduction in PGE2 production using arachidonic acid as substrate preincubated for 60 mins followed by substrate addition for 1 hr in presence of 10% FBS by RapidFire High-Throughput Mass Spectrometry; type: ADME, cell-based, HEK293-T-REx
T2 sequence (P23219 whole entry): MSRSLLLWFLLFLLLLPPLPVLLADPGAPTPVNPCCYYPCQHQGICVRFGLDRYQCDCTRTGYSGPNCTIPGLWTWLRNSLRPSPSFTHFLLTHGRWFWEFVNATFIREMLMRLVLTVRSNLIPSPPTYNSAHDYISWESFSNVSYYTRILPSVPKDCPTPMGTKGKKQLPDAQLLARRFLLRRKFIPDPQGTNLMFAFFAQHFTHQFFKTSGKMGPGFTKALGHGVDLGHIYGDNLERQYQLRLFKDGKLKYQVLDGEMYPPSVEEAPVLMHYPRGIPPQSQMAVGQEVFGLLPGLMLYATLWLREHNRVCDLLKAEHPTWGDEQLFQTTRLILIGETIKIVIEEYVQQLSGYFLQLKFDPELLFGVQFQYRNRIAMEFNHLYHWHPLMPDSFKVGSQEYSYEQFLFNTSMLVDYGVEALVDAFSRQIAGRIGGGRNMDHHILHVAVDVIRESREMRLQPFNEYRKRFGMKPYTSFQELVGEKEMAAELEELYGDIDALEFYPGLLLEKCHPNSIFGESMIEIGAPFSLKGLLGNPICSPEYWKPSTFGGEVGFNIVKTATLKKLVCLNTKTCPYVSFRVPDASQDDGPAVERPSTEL

[4] = Half life in mouse liver microsomes; type: ADME, Microsome
[5] = Half life in human hepatocytes; type: ADME, cell-based, Hepatocyte
[6] = Volume of distribution at steady state in C57BL/6J mouse at 2 mg/kg, iv measured after 0.08 to 24 hrs; type: ADME, organism-based; details: C57BL/6J, in vivo, time 0.08-24 hrs, read-out: Vdss
[7] = Drug concentration in C57BL/6J mouse colon at 10 mg/kg, po administered as cassette dose measured at 4 hrs by LC/MS/MS analysis; type: ADME, organism-based; details: read-out: Ct
[8] = Ratio of drug concentration in C57BL/6J mouse colon to plasma at 10 mg/kg, po measured after 4 hr by liquid chromatographic triple-quadrupole mass spectrometric method; type: ADME, organism-based; details: C57BL/6J, colon / plasma
[9] = target: T2, Prostaglandin G/H synthase 1; assay: Inhibition of COX1 in human whole blood assessed as reduction in calcium ionophore-stimulated TXB2 production incubated for 1 hr by ELISA; type: tissue-based
[10] = Protein binding in human plasma assessed as unbound fraction; type: ADME, cell-free
[11] = Protein binding in human colon assessed as unbound fraction; type: ADME, tissue-based
[12] = Equilibrium solubility of compound in FASSIF at pH 6.5; type: physicochemical
[13] = Drug concentration in C57BL/6J mouse portal vein plasma at 10 mg/kg, po administered as cassette dose measured at 4 hrs by LC/MS/MS analysis; type: ADME, organism-based
Mus musculus [14] = assay: Antitumor activity in C57BL/6J mouse model of spontaneous GI-tract tumor Apc-min assessed as reduction in total ileum polyp area at 300 mg/kg, po administered as suspension for 10 to 12 weeks; type: functional; details: time 10-12 weeks, read-out: TGI
Mus musculus [15] = assay: Antitumor activity in C57BL/6J mouse model of spontaneous GI-tract tumor Apc-min assessed as mouse survival at 30 mg/kg, po administered daily as suspension and measured at day 82 by Kaplan-Meier method; type: functional
[16] = Oral bioavailability in C57BL/6J mouse at 10 mg/kg measured up to 24 hrs by LC-MS analysis; type: ADME, organism-based; details: in vivo
[17] = Oral bioavailability in Sprague Dawley rat at 10 mg/kg measured up to 24 hrs by LC-MS analysis; type: ADME, organism-based; details: in vivo
[18] = Oral bioavailability in Cynomolgus monkey at 10 mg/kg measured up to 24 hrs by LC-MS analysis; type: ADME, organism-based, Macaca fascicularis; details: in vivo
[19] = Oral bioavailability in dog at 10 mg/kg measured up to 24 hrs by LC-MS analysis; type: ADME, organism-based, Canis lupus familiaris; details: in vivo
Homo sapiens = species on record: Homo sapiens; assay: Selectivity ratio of IC50 for COX1 in human whole blood assessed as reduction in calcium ionophore-stimulated TXB2 production to IC50 for COX2 in human whole blood assessed as reduction in LPS stimulated PGE2 production; type: tissue-based
[20] = target: T3, Prostaglandin G/H synthase 2 (Mus musculus, UniProt Q05769); assay: In vivo inhibition of COX2 in po dosed C57BL/6J mouse model of spontaneous GI-tract tumor Apc-min assessed as chemopreventive effect by measuring reduction in polyp area and relevant plasma exposures; type: functional, organism-based
T3 sequence (Q05769 whole entry): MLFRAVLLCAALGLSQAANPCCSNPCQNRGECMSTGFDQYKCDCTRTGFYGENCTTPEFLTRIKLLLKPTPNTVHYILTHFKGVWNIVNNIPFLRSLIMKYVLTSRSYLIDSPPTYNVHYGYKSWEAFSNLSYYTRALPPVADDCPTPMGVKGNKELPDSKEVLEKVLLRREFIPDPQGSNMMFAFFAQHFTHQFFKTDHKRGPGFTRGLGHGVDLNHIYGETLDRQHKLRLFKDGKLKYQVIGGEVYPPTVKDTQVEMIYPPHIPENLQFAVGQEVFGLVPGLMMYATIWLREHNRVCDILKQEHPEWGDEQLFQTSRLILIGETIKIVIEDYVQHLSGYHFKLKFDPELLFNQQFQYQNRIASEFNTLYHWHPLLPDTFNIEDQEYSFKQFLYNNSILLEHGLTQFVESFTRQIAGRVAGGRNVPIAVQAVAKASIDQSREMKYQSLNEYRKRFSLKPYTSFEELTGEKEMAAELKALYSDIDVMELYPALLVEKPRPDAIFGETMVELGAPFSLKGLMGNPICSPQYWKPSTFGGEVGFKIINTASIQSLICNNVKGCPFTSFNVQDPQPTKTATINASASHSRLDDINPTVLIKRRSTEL

Mus musculus [21] = assay: Antitumor activity in C57BL/6J mouse model of spontaneous GI-tract tumor Apc-min assessed as reduction in total ileum polyp number at 30 to 300 mg/kg, po administered as suspension for 10 weeks; type: functional, organism-based; details: dose 30-300 mg/kg
Mus musculus [22] = assay: Antitumor activity in po dosed C57BL/6J mouse model of spontaneous GI-tract tumor Apc-min assessed as reduction in total ileum polyp area administered as suspension for 10 to 12 weeks; type: functional, organism-based; details: time 10-12 weeks
in vivo = details: C57BL/6J, mouse, colon / portal vein plasma, po, 10 mg/kg
Description: Ratio of drug concentration in C57BL/6J mouse colon to portal vein plasma at 10 mg/kg, po measured after 4 hr by liquid chromatographic triple-quadrupole mass spectrometric method

With `CCCOc1nc(OCC(C)(C)O)c(-c2ccc(S(C)(=O)=O)cc2)cc1CO` the pIC50 [1] was 6.22, the pIC50 [2] was 6.08 and the pIC50 [3] was under 4.30. The half-life [4] was 19.6 min, the half-life [5] was 3.1 min and the Vd [6] was 3.05 L/kg. The concentration at 4 h [7] was 5340 ng/g, the Kp at 4 h [8] was 1280 and the pIC50 [9] was 3.71. For the same compound, the fraction unbound [10] was 0.016, the fraction unbound [11] was 0.066 and the solubility thermodynamic [12] was 25 µM (≈ 10.2 µg/mL). For the same compound, the concentration at 4 h [13] was 98.6 ng/mL, the inhibition in vivo at 300 mg/kg (Mus musculus [14]) was 41.9% and the Survival (Mus musculus [15]) was over 82 days. The bioavailability [16] was 4.25%, the bioavailability [17] was 2.3% and the bioavailability [18] was 20%. The bioavailability [19] was 79.5%, the Ratio IC50 (Homo sapiens) was 80 and the pIC50 [20] was 7.46. The Activity (Mus musculus [21]) was “Active”, the Activity (Mus musculus [22]) was “Dose-Dependent Effect” and the Kp at 4 h (in vivo) was 38.
